These results are taken from patent publication US10800792B2, “Inhibitors of Bruton's tyrosine kinase and method of their use” (JANSSEN PHARMACEUTICA NV, priority 2015, dated 2020).

The target of this experiment is unphosphorylated-BTK kinase domain (UP-BTK), GST-tagged human BTK (389-659aa) (Homo sapiens (Human), UniProt Q06187). Briefly: BTK kinase Lanthascreen binding assay. Particulars: pIC50 = negative log of the IC50 in molar; 60 minutes incubation, 50 nM Tracer 236. In short, it runs like this: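 Tracer-displacement binding assay against the non-phosphorylated enzyme, read by Lanthascreen. Reported: pIC50.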
unphosphorylated-BTK kinase domain (UP-BTK), GST-tagged human BTK (389-659aa), sequence (Q06187 389-659): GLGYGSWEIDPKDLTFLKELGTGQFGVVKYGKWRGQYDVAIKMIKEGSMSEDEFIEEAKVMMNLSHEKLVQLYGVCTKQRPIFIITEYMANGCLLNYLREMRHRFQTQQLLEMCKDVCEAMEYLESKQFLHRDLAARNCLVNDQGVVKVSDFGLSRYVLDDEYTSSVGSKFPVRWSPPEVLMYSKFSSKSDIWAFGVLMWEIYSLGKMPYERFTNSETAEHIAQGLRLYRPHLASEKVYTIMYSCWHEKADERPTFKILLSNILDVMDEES

On to `Cc1cc(Oc2ccccc2)ccc1N1C(=O)Nc2c(C(=O)N[C@H]3CN(C)C[C@@H]3F)sc3nccc1c23` [Example 186, N-((3S,4S)-4-Fluoro-1-methylpyrrolidin-3-yl)-5-(2-methyl-4-phenoxyphenyl)-4-oxo-4,5-dihydro-3H-1-thia-3,5,8-triazaacenaphthylene-2-carboxamide], for which the “BTK_I_binding pIC50” value is on record as 6.8.

Turning to `Cc1cc(Oc2ccccc2)ccc1N1C(=O)Nc2c(C(=O)NC3CCCN(C)CC3)sc3nccc1c23` (stereo not shown) [Example 187, 5-(2-Methyl-4-phenoxyphenyl)-N-(1-methylazepan-4-yl)-4-oxo-4,5-dihydro-3H-1-thia-3,5,8-triazaacenaphthylene-2-carboxamide], the “BTK_I_binding pIC50” value is 6.7. Regarding `COCC(C)(C)C(=O)N1CCC[C@@H](NC(=O)c2sc3nccc4c3c2NC(=O)N4c2ccc(Oc3ccccc3)cc2C)C1` [Example 188, (R)—N-(1-(3-Methoxy-2,2-dimethylpropanol)piperidin-3-yl)-5-(2-methyl-4-phenoxyphenyl)-4-oxo-4,5-dihydro-3H-1-thia-3,5,8-triazaacenaphthylene-2-carboxamide], the “BTK_I_binding pIC50” value worked out at 6.7. Then `Cc1cc(Oc2ccccc2)ccc1N1C(=O)Nc2c(C(=O)NC3CCCN(C#N)CC3)sc3nccc1c23` (stereo not shown) [Example 189, N-(1-Cyanoazepan-4-yl)-5-(2-methyl-4-phenoxyphenyl)-4-oxo-4,5-dihydro-3H-1-thia-3,5,8-triazaacenaphthylene-2-carboxamide], with 6.6; and `COC[C@@H](OC)C(=O)N1CCC[C@@H](NC(=O)c2sc3nccc4c3c2NC(=O)N4c2ccc(Oc3ccccc3)cc2C)C1` [Example 190, N—((R)-1-((R)-2,3-Dimethoxypropanoyl)piperidin-3-yl)-5-(2-methyl-4-phenoxyphenyl)-4-oxo-4,5-dihydro-3H-1-thia-3,5,8-triazaacenaphthylene-2-carboxamide], with 7.0; and `Cc1cc(Oc2ccccc2)ccc1N1C(=O)Nc2c(C(=O)N[C@@H]3CCCN(C(=O)[C@@H]4CCNC4)C3)sc3nccc1c23` [Example 191, 5-(2-Methyl-4-phenoxyphenyl)-4-oxo-N—((R)-1-((R)-pyrrolidine-3-carbonyl)piperidin-3-yl)-4,5-dihydro-3H-1-thia-3,5,8-triazaacenaphthylene-2-carboxamide], with 7.1.

For `Cc1cc(Oc2ccccc2)ccc1N1C(=O)Nc2c(C(=O)NC3(CO)CCOCC3)sc3nccc1c23` [Example 192, N-(4-(Hydroxymethyl)tetrahydro-2H-pyran-4-yl)-5-(2-methyl-4-phenoxyphenyl)-4-oxo-4,5-dihydro-3H-1-thia-3,5,8-triazaacenaphthylene-2-carboxamide], the “BTK_I_binding pIC50” value turned out to be 6.8. Then `CCOc1ccc(N2C(=O)Nc3c(C(=O)N[C@@H]4CCCN(C(=O)/C(C#N)=C/C5CC5)C4)sc4nccc2c34)c(C)c1` [Example 193, (R,E)-N-(1-(2-Cyano-3-cyclopropylacryloyl)piperidin-3-yl)-5-(4-ethoxy-2-methylphenyl)-4-oxo-4,5-dihydro-3H-1-thia-3,5,8-triazaacenaphthylene-2-carboxamide], with 7.3; and `C=CC(=O)N1CCC[C@@H](NC(=O)c2sc3nccc4c3c2NC(=O)N4c2ccccc2F)C1` [Example 194, (R)—N-(1-Acryloylpiperidin-3-yl)-5-(2-fluorophenyl)-4-oxo-4,5-dihydro-3H-1-thia-3,5,8-triazaacenaphthylene-2-carboxamide], with 6.9. As for `Cc1cc(Oc2ccccc2)ccc1N1C(=O)Nc2c(C(=O)N[C@@H]3CCCN(C(=O)/C(C#N)=C\C(C)(C)N)C3)sc3nccc1c23` [Example 195, (R,Z)—N-(1-(4-Amino-2-cyano-4-methylpent-2-enoyl)piperidin-3-yl)-5-(2-methyl-4-phenoxyphenyl)-4-oxo-4,5-dihydro-3H-1-thia-3,5,8-triazaacenaphthylene-2-carboxamide], the “BTK_I_binding pIC50” value is on record as 7.4. Turning to `Cc1cc(Oc2ccccc2)ccc1N1C(=O)Nc2c(C(=O)N[C@@H]3CCCN(C(=O)/C(C#N)=C/C4(N)CC4)C3)sc3nccc1c23` [Example 196, (R,E)-N-(1-(3-(1-Aminocyclopropyl)-2-cyanoacryloyl)piperidin-3-yl)-5-(2-methyl-4-phenoxyphenyl)-4-oxo-4,5-dihydro-3H-1-thia-3,5,8-triazaacenaphthylene-2-carboxamide], the “BTK_I_binding pIC50” value stood at 6.8. In the case of `Cc1cc(Oc2ccccc2)ccc1N1C(=O)Nc2c(C(=O)N[C@H]3CNC[C@@H](O)C3)sc3nccc1c23` [Example 197, N-((3R,5S)-5-Hydroxypiperidin-3-yl)-5-(2-methyl-4-phenoxyphenyl)-4-oxo-4,5-dihydro-3H-1-thia-3,5,8-triazaacenaphthylene-2-carboxamide], the “BTK_I_binding pIC50” value stood at 6.8.

As for `Cc1cc(Oc2ccccc2)ccc1N1C(=O)Nc2c(C(=O)N[C@@H]3CCCN(C(=O)[C@@H]4CCOC4)C3)sc3nccc1c23` [Example 198, 5-(2-Methyl-4-phenoxyphenyl)-4-oxo-N—((R)-1-((R)-tetrahydrofuran-3-carbonyl)piperidin-3-yl)-4,5-dihydro-3H-1-thia-3,5,8-triazaacenaphthylene-2-carboxamide], the “BTK_I_binding pIC50” value came out at 7.0. Turning to `Cc1cc(Oc2ccccc2)ccc1N1C(=O)Nc2c(C(=O)N[C@@H]3CCCN(C(=O)/C=C/C4CC4)C3)sc3nccc1c23` [Example 199, (R,E)-N-(1-(3-Cyclopropylacryloyl)piperidin-3-yl)-5-(2-methyl-4-phenoxyphenyl)-4-oxo-4,5-dihydro-3H-1-thia-3,5,8-triazaacenaphthylene-2-carboxamide], the “BTK_I_binding pIC50” value worked out at 6.6. Consider `Cc1cc(Oc2ccccc2)ccc1N1C(=O)Nc2c(C(=O)N[C@H]3CN(C)C[C@H]3O)sc3nccc1c23` [Example 200, N-((3S,4R)-4-Hydroxy-1-methylpyrrolidin-3-yl)-5-(2-methyl-4-phenoxyphenyl)-4-oxo-4,5-dihydro-3H-1-thia-3,5,8-triazaacenaphthylene-2-carboxamide], for which the “BTK_I_binding pIC50” value is 6.6. In the case of `Cc1cc(Oc2ccccc2C2CC2)ccc1N1C(=O)Nc2c(C(=O)N[C@@H]3CCCN(C)C3)sc3nccc1c23` [Example 201, (R)-5-(4-(2-Cyclopropylphenoxy)-2-methylphenyl)-N-(1-methylpiperidin-3-yl)-4-oxo-4,5-dihydro-3H-1-thia-3,5,8-triazaacenaphthylene-2-carboxamide] it was 6.6; in that of `Cc1cc(Oc2ccccc2)ccc1N1C(=O)Nc2c(C(=O)NC3CNC(=O)C3)sc3nccc1c23` (stereo not shown) [Example 202, 5-(2-Methyl-4-phenoxyphenyl)-4-oxo-N-(5-oxopyrrolidin-3-yl)-4,5-dihydro-3H-1-thia-3,5,8-triazaacenaphthylene-2-carboxamide], 6.7; in that of `Cc1cc(Oc2ccccc2)ccc1N1C(=O)Nc2c(C(=O)NC3CCN(C)C(C)C3)sc3nccc1c23` (stereo not shown) [Example 203, N-(1,2-Dimethylpiperidin-4-yl)-5-(2-methyl-4-phenoxyphenyl)-4-oxo-4,5-dihydro-3H-1-thia-3,5,8-triazaacenaphthylene-2-carboxamide], 6.5. For `C=C(C)C(=O)N1CCC[C@@H](NC(=O)c2sc3nccc4c3c2NC(=O)N4c2ccc(Oc3ccccc3)cc2C)C1` [Example 204, (R)—N-(1-Methacryloylpiperidin-3-yl)-5-(2-methyl-4-phenoxyphenyl)-4-oxo-4,5-dihydro-3H-1-thia-3,5,8-triazaacenaphthylene-2-carboxamide], the “BTK_I_binding pIC50” value was determined as 6.9. With `Cc1cc(Oc2ccccc2)ccc1N1C(=O)Nc2c(C(=O)NC3CCCN(C(=O)C4CC4)C3)sc3nccc1c23` (stereo not shown) [Example 205, N-(1-(Cyclopropanecarbonyl)piperidin-3-yl)-5-(2-methyl-4-phenoxyphenyl)-4-oxo-4,5-dihydro-3H-1-thia-3,5,8-triazaacenaphthylene-2-carboxamide], the “BTK_I_binding pIC50” value amounted to 6.8.

Turning to `Cc1cc(Oc2ccccc2)ccc1N1C(=O)Nc2c(C(=O)NC3CCCCN(C)C3)sc3nccc1c23` (stereo not shown) [Example 206, 5-(2-Methyl-4-phenoxyphenyl)-N-(1-methylazepan-3-yl)-4-oxo-4,5-dihydro-3H-1-thia-3,5,8-triazaacenaphthylene-2-carboxamide], the “BTK_I_binding pIC50” value was determined as 7.1.

Take `Cc1cc(Oc2ccccc2)ccc1N1C(=O)Nc2c(C(=O)N[C@@H]3CCCN(C(=O)[C@H]4CCOC4)C3)sc3nccc1c23` [Example 207, 5-(2-Methyl-4-phenoxyphenyl)-4-oxo-N—((R)-1-((S)-tetrahydrofuran-3-carbonyl)piperidin-3-yl)-4,5-dihydro-3H-1-thia-3,5,8-triazaacenaphthylene-2-carboxamide]: the “BTK_I_binding pIC50” value was found to be 7.1. Take `CO[C@@H]1CN(C)C[C@@H]1NC(=O)c1sc2nccc3c2c1NC(=O)N3c1ccc(Oc2ccccc2)cc1C` [Example 208, N-((3S,4R)-4-Methoxy-1-methylpyrrolidin-3-yl)-5-(2-methyl-4-phenoxyphenyl)-4-oxo-4,5-dihydro-3H-1-thia-3,5,8-triazaacenaphthylene-2-carboxamide]: the “BTK_I_binding pIC50” value worked out at 6.8. In the case of `C=CC(=O)N1CC[C@@H](NC(=O)c2sc3nccc4c3c2NC(=O)N4c2c(Cl)ccc3c2OCO3)C1` [Example 209, (R)—N-(1-Acryloylpyrrolidin-3-yl)-5-(5-chlorobenzo[d][1,3]dioxol-4-yl)-4-oxo-4,5-dihydro-3H-1-thia-3,5,8-triazaacenaphthylene-2-carboxamide], the “BTK_I_binding pIC50” value worked out at 7.1. As to `Cc1cccc(Oc2ccc(N3C(=O)Nc4c(C(=O)N[C@@H]5CCCN(C)C5)sc5nccc3c45)c(C)c2)c1` [Example 210, (R)-5-(2-Methyl-4-(m-tolyloxy)phenyl)-N-(1-methylpiperidin-3-yl)-4-oxo-4,5-dihydro-3H-1-thia-3,5,8-triazaacenaphthylene-2-carboxamide], the “BTK_I_binding pIC50” value is reported as 6.7.
